Common to all, as to assay: KINOMEscan (ScanMAX) kinase profiling
What all share (assay type): binding

Experiment [1] concerns the target T1, panel of 468 kinases (Homo sapiens, UniProt P51956).
T1 construct: purchased KINOMEscan (ScanMAX) service
T1 sequence (P51956 1-506): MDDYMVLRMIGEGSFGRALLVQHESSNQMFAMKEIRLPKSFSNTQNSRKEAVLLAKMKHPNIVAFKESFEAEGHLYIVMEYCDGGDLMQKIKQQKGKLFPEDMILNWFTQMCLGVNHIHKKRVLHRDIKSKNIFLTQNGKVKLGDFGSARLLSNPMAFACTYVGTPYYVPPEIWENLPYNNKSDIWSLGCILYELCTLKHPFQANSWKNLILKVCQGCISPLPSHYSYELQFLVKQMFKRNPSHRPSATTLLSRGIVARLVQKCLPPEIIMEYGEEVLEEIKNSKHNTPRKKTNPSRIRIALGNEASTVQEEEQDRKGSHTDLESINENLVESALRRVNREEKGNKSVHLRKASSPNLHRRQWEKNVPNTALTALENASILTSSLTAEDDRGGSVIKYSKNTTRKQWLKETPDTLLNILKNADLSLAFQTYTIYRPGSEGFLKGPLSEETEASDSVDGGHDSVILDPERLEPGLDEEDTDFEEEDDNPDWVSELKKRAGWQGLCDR
Conditions: NEK3; 1 μM; read-out: % control.

Experiment [2] concerns the target T2, panel of 468 kinases (Homo sapiens, UniProt Q6P3R8).
T2 construct: purchased KINOMEscan (ScanMAX) service
T2 sequence (Q6P3R8 1-708): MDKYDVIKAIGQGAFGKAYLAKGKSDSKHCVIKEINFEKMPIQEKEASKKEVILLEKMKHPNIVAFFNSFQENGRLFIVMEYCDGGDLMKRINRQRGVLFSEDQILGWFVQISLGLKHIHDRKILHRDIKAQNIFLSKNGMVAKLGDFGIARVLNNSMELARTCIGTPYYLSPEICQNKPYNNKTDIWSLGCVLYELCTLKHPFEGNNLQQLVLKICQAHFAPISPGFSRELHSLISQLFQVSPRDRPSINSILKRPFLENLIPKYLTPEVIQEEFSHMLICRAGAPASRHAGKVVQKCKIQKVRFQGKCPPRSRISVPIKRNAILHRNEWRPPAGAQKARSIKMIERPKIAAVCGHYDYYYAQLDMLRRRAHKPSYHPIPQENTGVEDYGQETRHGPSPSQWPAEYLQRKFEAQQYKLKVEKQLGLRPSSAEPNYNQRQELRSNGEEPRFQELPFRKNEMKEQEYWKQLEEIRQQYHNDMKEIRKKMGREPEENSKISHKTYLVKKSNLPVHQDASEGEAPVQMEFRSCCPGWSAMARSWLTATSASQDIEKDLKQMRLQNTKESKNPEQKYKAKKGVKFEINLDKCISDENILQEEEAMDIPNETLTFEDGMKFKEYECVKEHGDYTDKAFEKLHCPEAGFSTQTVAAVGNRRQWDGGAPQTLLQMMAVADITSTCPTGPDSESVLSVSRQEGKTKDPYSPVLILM
Conditions: NEK5; 1 μM; read-out: % control.

Experiment [3] addresses T3, panel of 468 kinases (Homo sapiens, UniProt Q96J92).
T3 construct: purchased KINOMEscan (ScanMAX) service
Conditions: WNK4; 1 μM; read-out: % control.

Experiment [4] has as its target T4, panel of 468 kinases (Homo sapiens, UniProt P28482).
T4 construct: purchased KINOMEscan (ScanMAX) service
Conditions: ERK2; 1 μM; read-out: % control.

Experiment [5] concerns the target T5, panel of 468 kinases (Homo sapiens, UniProt O76039).
T5 construct: purchased KINOMEscan (ScanMAX) service
T5 sequence (O76039 1-960): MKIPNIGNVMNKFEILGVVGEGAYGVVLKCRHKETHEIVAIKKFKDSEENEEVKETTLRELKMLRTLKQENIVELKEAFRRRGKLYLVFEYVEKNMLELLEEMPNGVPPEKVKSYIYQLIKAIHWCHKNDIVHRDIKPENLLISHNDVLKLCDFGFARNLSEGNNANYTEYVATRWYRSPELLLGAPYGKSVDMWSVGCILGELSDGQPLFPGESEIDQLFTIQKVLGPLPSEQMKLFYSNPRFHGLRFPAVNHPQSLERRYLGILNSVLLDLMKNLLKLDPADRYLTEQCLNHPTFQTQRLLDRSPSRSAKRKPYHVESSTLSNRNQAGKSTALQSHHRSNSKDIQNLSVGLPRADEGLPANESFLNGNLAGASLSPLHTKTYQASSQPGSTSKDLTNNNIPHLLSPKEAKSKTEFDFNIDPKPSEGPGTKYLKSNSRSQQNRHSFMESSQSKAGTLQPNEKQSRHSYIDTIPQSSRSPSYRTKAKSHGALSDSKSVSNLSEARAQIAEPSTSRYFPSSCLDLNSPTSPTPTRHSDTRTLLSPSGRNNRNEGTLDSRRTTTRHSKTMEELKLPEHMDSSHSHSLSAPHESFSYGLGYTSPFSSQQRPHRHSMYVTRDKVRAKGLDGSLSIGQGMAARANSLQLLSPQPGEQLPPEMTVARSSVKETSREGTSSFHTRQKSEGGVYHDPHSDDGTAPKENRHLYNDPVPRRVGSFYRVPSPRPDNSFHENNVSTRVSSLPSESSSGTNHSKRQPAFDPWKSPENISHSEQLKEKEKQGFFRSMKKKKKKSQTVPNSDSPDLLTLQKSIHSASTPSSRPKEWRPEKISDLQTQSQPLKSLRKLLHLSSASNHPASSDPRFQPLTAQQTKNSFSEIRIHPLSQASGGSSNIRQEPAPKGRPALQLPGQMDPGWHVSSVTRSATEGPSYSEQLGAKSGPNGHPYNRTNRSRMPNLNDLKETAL
Conditions: CDKL5; 1 μM; read-out: % control.

For experiment [6], the target named is T6, panel of 468 kinases (Homo sapiens, UniProt P24941).
T6 construct: purchased KINOMEscan (ScanMAX) service
Conditions: CDK2; 1 μM; read-out: % control.

Experiment [7] addresses T7, panel of 468 kinases (Homo sapiens, UniProt Q96NX5).
T7 construct: purchased KINOMEscan (ScanMAX) service
Conditions: CAMK1G; 1 μM; read-out: % control.

Experiment [8] concerns the target T8, panel of 468 kinases (Homo sapiens, UniProt Q9NYY3).
T8 construct: purchased KINOMEscan (ScanMAX) service
Conditions: PLK2; 1 μM; read-out: % control.

SMILES strings stand for the structures.

T7 sequence (Q96NX5 whole entry): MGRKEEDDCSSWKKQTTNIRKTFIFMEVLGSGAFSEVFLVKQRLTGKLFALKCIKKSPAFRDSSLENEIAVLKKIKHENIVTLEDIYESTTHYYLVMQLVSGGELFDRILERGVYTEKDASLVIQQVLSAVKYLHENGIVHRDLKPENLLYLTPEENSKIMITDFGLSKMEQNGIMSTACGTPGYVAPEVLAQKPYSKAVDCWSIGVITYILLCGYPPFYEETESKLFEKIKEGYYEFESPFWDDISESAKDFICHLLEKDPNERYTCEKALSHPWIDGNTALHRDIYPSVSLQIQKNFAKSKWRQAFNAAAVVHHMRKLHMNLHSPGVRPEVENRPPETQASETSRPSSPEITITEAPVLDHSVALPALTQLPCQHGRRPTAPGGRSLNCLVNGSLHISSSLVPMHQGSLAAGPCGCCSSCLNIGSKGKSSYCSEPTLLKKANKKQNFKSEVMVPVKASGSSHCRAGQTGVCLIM
T3 sequence (Q96J92 whole entry): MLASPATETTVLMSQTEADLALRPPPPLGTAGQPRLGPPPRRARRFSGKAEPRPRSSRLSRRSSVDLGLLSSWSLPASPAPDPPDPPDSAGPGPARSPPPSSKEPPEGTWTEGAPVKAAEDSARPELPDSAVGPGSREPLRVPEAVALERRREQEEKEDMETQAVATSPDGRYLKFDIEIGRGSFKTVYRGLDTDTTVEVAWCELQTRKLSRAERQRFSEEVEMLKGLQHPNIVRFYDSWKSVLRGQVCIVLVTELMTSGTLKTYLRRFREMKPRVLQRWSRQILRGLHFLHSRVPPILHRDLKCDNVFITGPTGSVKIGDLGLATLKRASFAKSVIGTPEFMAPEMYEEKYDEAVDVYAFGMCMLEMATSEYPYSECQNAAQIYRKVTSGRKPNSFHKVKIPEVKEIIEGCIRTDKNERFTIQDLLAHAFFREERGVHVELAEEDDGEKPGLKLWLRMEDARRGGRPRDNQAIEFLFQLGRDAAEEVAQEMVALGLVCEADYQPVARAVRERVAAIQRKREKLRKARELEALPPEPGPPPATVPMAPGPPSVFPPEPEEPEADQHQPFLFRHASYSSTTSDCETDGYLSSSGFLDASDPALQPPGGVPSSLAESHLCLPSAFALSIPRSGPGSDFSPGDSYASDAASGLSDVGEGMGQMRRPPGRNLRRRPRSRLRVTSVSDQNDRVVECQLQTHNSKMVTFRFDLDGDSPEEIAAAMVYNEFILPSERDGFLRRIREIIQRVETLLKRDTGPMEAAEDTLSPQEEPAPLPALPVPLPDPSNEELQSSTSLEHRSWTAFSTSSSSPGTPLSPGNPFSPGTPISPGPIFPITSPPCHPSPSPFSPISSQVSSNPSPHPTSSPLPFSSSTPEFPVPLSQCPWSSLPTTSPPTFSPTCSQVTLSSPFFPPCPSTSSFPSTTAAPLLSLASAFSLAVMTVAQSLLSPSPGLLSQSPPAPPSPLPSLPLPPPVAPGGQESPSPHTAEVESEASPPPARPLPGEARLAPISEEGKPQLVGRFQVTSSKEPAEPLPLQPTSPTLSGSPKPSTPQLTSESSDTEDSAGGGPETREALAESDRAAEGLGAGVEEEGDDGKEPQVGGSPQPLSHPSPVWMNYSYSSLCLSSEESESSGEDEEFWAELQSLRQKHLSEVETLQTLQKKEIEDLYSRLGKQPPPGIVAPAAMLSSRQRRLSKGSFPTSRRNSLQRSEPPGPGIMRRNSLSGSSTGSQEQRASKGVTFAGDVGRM
T4 sequence (P28482 whole entry): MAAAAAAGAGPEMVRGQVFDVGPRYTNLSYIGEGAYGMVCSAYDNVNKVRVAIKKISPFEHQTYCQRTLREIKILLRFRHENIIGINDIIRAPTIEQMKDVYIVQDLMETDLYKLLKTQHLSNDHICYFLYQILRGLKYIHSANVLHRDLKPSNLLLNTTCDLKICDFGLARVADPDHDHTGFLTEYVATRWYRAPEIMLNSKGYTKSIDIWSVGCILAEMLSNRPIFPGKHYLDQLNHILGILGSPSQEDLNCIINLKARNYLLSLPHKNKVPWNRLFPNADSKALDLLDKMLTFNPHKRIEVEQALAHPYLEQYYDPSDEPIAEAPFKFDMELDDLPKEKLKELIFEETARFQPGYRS
T8 sequence (Q9NYY3 whole entry): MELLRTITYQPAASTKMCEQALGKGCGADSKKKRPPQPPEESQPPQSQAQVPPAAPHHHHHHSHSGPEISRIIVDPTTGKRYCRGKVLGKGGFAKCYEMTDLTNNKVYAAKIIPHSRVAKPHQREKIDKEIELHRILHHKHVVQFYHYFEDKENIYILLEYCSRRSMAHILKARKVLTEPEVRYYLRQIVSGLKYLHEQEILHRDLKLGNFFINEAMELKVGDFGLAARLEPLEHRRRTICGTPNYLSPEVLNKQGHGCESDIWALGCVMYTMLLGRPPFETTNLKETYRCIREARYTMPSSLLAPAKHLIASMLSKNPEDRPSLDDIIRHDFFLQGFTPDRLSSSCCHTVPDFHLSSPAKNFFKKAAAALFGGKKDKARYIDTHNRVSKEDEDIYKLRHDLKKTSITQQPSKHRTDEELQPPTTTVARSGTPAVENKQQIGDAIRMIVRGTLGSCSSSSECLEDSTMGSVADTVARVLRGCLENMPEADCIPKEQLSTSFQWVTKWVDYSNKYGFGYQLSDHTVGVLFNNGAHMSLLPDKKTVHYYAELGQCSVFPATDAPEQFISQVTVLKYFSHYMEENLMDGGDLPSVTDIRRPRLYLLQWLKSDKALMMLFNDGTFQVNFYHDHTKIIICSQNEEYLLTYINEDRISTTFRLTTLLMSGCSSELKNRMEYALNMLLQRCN

Consider `CNc1nc(Nc2ccc(C(=O)N3CCC(N4CCOCC4)CC3)c3c2OCO3)nc2[nH]cc(Cl)c12` [Compound 75, (7-((5-chloro-4-(methylamino)-7H-pyrrolo[2,3-d]pyrimidin-2-yl)amino)benzo[d][1,3]dioxol-4-yl)(4-morpholinopiperidin-1-yl)methanone], for which the remaining binding at 1 µM in experiment [1] is 54%; in experiment [2], 97%; in experiment [3], 66%; in experiment [4], 100%; in experiment [5] it was 83%; in experiment [6], 100%. In addition, the remaining binding at 1 µM in experiment [7] stood at 73%; in experiment [8], 82%.

On to `CNc1nc(Nc2ccc(P3(=O)CCN(C4CCOCC4)CC3)cc2OC)nc2[nH]cc(Cl)c12` [Compound 77, 4-(4-((5-chloro-4-(methylamino)-7H-pyrrolo[2,3-d]pyrimidin-2-yl)amino)-3-methoxyphenyl)-1-(tetrahydro-2H-pyran-4-yl)-1,4-azaphosphinane 4-oxide], for which the remaining binding at 1 µM in experiment [1] was determined as 52%; in experiment [2] it was 98%; in experiment [3], 66%; in experiment [4], 100%; in experiment [5], 91%; in experiment [6], 100%. The remaining binding at 1 µM in experiment [7] is 65%; in experiment [8], 75%.

As for `CNc1nc(Nc2ccc(S(=O)(=O)N3CCC(N4CCOCC4)CC3)cc2OC)nc2[nH]cc(Cl)c12` [Compound 12, 5-chloro-N2-(2-methoxy-4-((4-morpholinopiperidin-1-yl)sulfonyl)phenyl)-N4-methyl-7H-pyrrolo[2,3-d]pyrimidine-2,4-diamine], the remaining binding at 1 µM in experiment [1] was 51%; in experiment [2], 100%; in experiment [3], 61%; in experiment [4], 100%; in experiment [5], 83%; in experiment [6], 100%. Moreover, the remaining binding at 1 µM in experiment [7] amounted to 96%; in experiment [8], 80%.

For the origin of these results see US12479847B2 (DANA-FARBER CANCER INSTITUTE, INC., priority 2019, dated 2025).
